Four compounds from patent US5358936A, “Anionic furanose derivatives, methods of making and using the same” (Gordon; Paul, priority 1991, dated 1994) can be followed below.

pIC50: −log10 of the molar value. Values joined by “and” are separate entries in the source; they are usually repeats but may differ in a detail not shown here. Equal values may be shown once. “Also recorded” adds a separate entry of the source. Where a name gives a salt, the structure may show the parent alone.

One data set relates to peritoneal neutrophils. The data set can be described thus: In vitro neutrophil chemotaxis toward zymosan-activated rat serum (Example 24). It counts as cell-based, mouse. The following applies: for pIC50: 6 h, 20 percent zymosan-activated rat serum, six hours, 37° C., read-out: ID50 (molar concentration that inhibited chemotaxis by 50 percent); for inhibition at 10 µg/mL: dose 10.0 μg/ml. The protocol:
In vitro neutrophil chemotaxis studies were carried out by standard methods, as follows:
Mice were injected with complete Freund's adjuvant (CFA) and peritoneal cells, principally neutrophjls (>90 percent), were reproved from the mice 24 hours thereafter. Blind-well chemotactic chambers (Nucleopore Corp., Pleasanton, Calif.) were utilized.
Medium (RPMI 1640 plus 10 percent fetal calf serum) or medium plus 20 percent zymosan-activated rat serum (ZAS) was added to the lower compartment of each chamber. A nucleopore filter (8 μm pore size) was placed between compartments and 1×10^5 peritoneal neutrophils (above) suspended in medium were placed in the upper compartment. Chambers were incubated for six hours, after which time the filters were removed and stained with Giemsa stain. The number of cells on the lower surface of the filter was counted under a microscope. Treatment groups were assayed in duplicate.
The studies were carried out more specifically as follows:
Zymosan (Sigma Chemical Co., St. Louis, Mo.) was mixed with rat serum for one hour at 37° C. at 1 milligram (mg)/ml. The resulting chemoattractant composition was filtered, aliquotted and stored frozen at -70° C. prior to use.
The above chemoattractant composition was used as a 20 percent v/v solution in medium.
The chemotaxis chambers were arranged as follows:
The chambers were incubated at 37° C. for six hours, after which the chambers were dismantled, and the filters removed and treated as follows:
a) The filters were immersed in Giemsa stain diluted 1:50 for 30-45 minutes.
b) The stained filters were rinsed gently in distilled water for 3-5 minutes.
c) The stained, rinsed filters were air dried without blotting.
Several compounds described herein and control compounds ("drug", above) were examined at various concentrations, in duplicate. The molar concentration of a drug that inhibited the observed chemotaxis by 50 percent, defined as the ID50 value, was determined as shown below.

In a further data set the test system is neutrophils. The data set can be described thus: Microscopic examination of neutrophils for cytotoxicity (Example 24). It is filed as cell-based, mouse.
For a further data set, the system named is rat paw. The data set can be described thus: Post-ischemic reperfusion paw swelling (Example 22). It is filed as in vivo, Sprague Dawley male rats. The following applies: study C, 0.2 mg/kg i.p. From the text:
This important disease model is used to evaluate aspects of tissue injury that occur in heart attack, or myocardial infarction, and stroke. Under these conditions, a significant period of injury can occur after blood flow has been restored, during the period of reperfusion.
To produce ischemia, blood flow to the left hind foot was largely interrupted by application of a tourniquet made up of two size 18 rubber bands wound eight times around the leg just behind the heel. […] Both application and removal of tourniquet were carried out under ether anesthesia. Injury was equated with organ swelling, which was assayed by measurement of the dorsoventral foot diameter with a Schnelltaster caliper, just before application of the tourniquet and at various times following tourniquet removal, during the reperfusion period.
Rats employed were Sprague Dawley males, weighing 240-280 grams. Drug comparisons were made here employing measurements 30 minutes into the reperfusion period. The widely studied drug allopurinol, a xanthine oxidase inhibitor and a free radical scavenging agent, used in the treatment of gout, and widely used to suppress experimental post-ischemic reperfusion injury was used as an experimental treatment standard. In studies below, allopurinol and all new drugs were given intraperitoneally 45-60 minutes prior to application of the tourniquet. Data are reported as the mean swelling (Mn)±standard error (SE). […] Group n is 5 or 6.
In another study, drug comparisons were made at various times after the reperfusion period. In this study, control and drug treatment groups were as above.

Data set [1] is described as follows: Dissolution and buffering of suspensions, HCl titration (Example 16).
Text: Note that the term "apparent pK" in this context is meant to encompass the maximization of buffering that come both from solid-state dissolution and its titration as solute.
Data set [2] in a line: Solubility / dissolution in acid, water and 20 percent methanol. It is filed as physicochemical. The following applies: pH 1.2; Compound III:Al 2.5 mg/ml.
In data set [3] the test system is focal submucosal lesions. Put plainly: Ethanol-induced gastric focal lesions (Example 33). It counts as in vivo, rat. The protocol: At three hours after ethanol administration, this drug continued to suppress ethanol-induced focal lesions (-57 percent).
A suspension of 25 mg/kg sucralfate+25 mg/kg Compound III:Al in combination was given as a pretreatment administration to another group in the same study. The combination produced an unanticipated augmentation of therapeutic effect against ethanol-induced focal submucosal lesions (-90 percent) at three hours post-ethanol administration. The same interactive phenomenon was also observed when Compound III was used, rather than Compound III:Al.

For another data set, the system named is gastric mucosal ulcers. The data set can be described thus: Healing of established gastric ulcers induced by acetic acid (Example 34). It counts as in vivo, rat. From the text: To evaluate drug effects on peptic ulcer healing, gastric mucosal ulcers were produced in rats, after a two day fast, by a modification of the method of Konturek et al., Am. J. Med., Vol. 86, 6A, 32 (1989). Briefly, to produce a mucosal ulcer, Konturek et al. applied 100 percent acetic acid for twenty seconds to the stomach serosa through a small cylindrical mold, 4.2 mm in diameter. The aim here was to make ulceration more severe than was achieved by the Konturek group so that spontaneous healing would not be as pronounced as they found in the controls, over an experimental period of seven days.
All drugs studied were suspended in 0.25 percent (by weight) aqueous methylcellulose solution as the vehicle or diluent, which also served as the placebo given to the controls. Treatments were given once daily by oral gavage, in one milliliter of vehicle. The treatment groups were: Control; Sucralfate at 200 mg/kg; and Compound III:Al at 200 mg/kg.
At the end of the treatment period, stomachs were removed, ulcer diameters were measured, and determination was made of the presence or absence of perforation.
A second study was carried out in which ulcer evolution was permitted to take place over five additional days, in the absence and presence of treatment with Sucralfate.
A third study was begun one day following the start of study 2, in which ulcer evolution was allowed to take place over five additional days, in the absence and presence of treatment with Compound III:Al.
In another study, after ulcer induction as above, a different dosage protocol was employed at 24 hours to evaluate the interaction of Compound III and orally administered sucralfate on ulcer healing. […] Here, daily drug doses of the following were used: (a) sucralfate at 200 mg/kg, alone and (b) in combination with 80 mg/kg Compound III given by mouth at -45 minutes, and, in a third group, (c) in combination with 10 mg/kg Compound III given IV also at -45 minutes. In this interaction study, drug treatment was continued for three and not five days, as was the case for the above studies, followed by passage of two additional non-treatment days before sacrifice of animals for evaluation of stomach ulcer area and perforation.
Data from all ulcer-healing studies employing a drug dosage of 200 mg/kg and the same ulcerogenesis protocol were pooled as to the frequency of gastric perforation observed on day five, not shown separately, with the day six perforation data shown above.

Data set [4] concerns focal submucosal lesions. Put plainly: Ethanol-induced gastric focal lesions (Example 33). It is filed as in vivo, rat. The following applies: one hour post-ethanol, 50 mg/kg.
The mark [5] stands for this setting: Mus musculus, Neutrophil, dose 1.0 μg/ml, read-out: Percent Inhibition of chemotaxis.
Setting [6] is: Mus musculus, Neutrophil, read-out: Percent Inhibition of chemotaxis.
The mark [7] stands for this setting: three hours post-ethanol, 50 mg/kg, combination 25 + 25 mg/kg.

Experimental for mouse blood coagulation: To assess the effect on coagulation, if any, of a compound of the invention, a comparative evaluation was made using mouse blood.
One ml of freshly drawn mouse blood was added to each tube, and the tube contents were mixed. The clotting time was then noted for each tube, and the results are as shown below:

For orientation: inhibition means the share of the control response that was lost under treatment. For the compound `CC1(C)O[C@H]2O[C@H]([C@H](O)COP(=O)(O)O)[C@H](OP(=O)(O)O)[C@H]2O1` [Compound VI, 1,2-O-(2-Propylidene)-3,6-di-O-phospho-α-D-glucofuranose, tetrapotassium salt], in the data set with peritoneal neutrophils (Mus musculus, Neutrophil), the pIC50 was 6.00. Besides, the inhibition at 1 µg/mL in the data set with peritoneal neutrophils (setting [5]) worked out at 44%. For the same compound, in the data set with peritoneal neutrophils (setting [6]), the inhibition at 10 µg/mL was determined as 85%. Moreover, the “Percent Inhibition of chemotaxis” value in the data set on peritoneal neutrophils (dose 1.0 μg/ml) was determined as 47.0%. Moreover, the “expressions of cytotoxicity in neutrophils by microscopic examination” value in the data set on neutrophils is “diffuse toxic granularity in the cells”. Also, the “Post-ischemic reperfusion 30 minute paw swelling, Mn ± SE” value with rat paw (control 18.4 ± 0.54, P < 0.02) is 9.1 ± 0.27 0.1 mm. The “Swelling change as a result of treatment” value with rat paw (30 minutes) was -50%.
As to `CCCN(CCC)S(=O)(=O)c1ccc(C(=O)O)cc1` [Probenecid, reference compound], the pIC50 in the data set on peritoneal neutrophils (Mus musculus, Neutrophil) was 5.52. Also, the inhibition at 0.1 µg/mL in the data set with peritoneal neutrophils (Mus musculus, Neutrophil, dose 0.1 μg/ml, read-out: Percent Inhibition of chemotaxis) is 5.5%. Further, in the data set with peritoneal neutrophils (setting [5]), the inhibition at 1 µg/mL was 59.5%. For the same compound, in the data set with peritoneal neutrophils (setting [6]), the inhibition at 10 µg/mL worked out at 89.5%. The “expressions of cytotoxicity in neutrophils by microscopic examination” value with neutrophils is on record as “stringy, elongated deformation in the neutrophils”.
As to “Aluminum Complex of 1,2-O-(1-Isopropylidene)-3,5,6-Tri-O-Sulfo-D-Glucofuranose [Compound III:Al]”, the “HCl needed to lower pH of suspension to below pH 2.00” value in data set [1] (50 mg in 20 ml distilled water, initial pH 4.44 (aluminum trihydroxide), 4.91 (sucralfate), 4.23 (Compound III:Al), water alone 0.30) came to 1.2 meq. The “buffering action, in words” value in data set [1] (HCl titration) is “better dissolution-and-buffering action between pH 4.5 and 2.0 than either aluminum trihydroxide or sucralfate; also recorded: no buffering power whatsoever at this pH value”. Also, the “Relative Buffering Power between pH 4.5 and 2.0” value in [1] (sucralfate = 1) is reported as 11. In addition, the “dissolution of suspension in acid” value in data set [2] is recorded as “still not all dissolved”. For the same compound, in the data set on focal submucosal lesions [3] (pretreatment 50 mg/kg one hour before ethanol), the “effect on ethanol-produced gastric pathology, in words” value is on record as “inhibited all focal lesions provoked by ethanol after one hour without suppressing large-vessel vasodilation”. The “change in focal lesions versus control” value in the data set on focal submucosal lesions [3] (setting [7]) is -57%; in the data set with focal submucosal lesions [4], -100%. Besides, in the data set with focal submucosal lesions [3] (setting [7]), the “change in focal lesions versus control, study employing Compound III” value is on record as -33%. Further, the “Focal Lesions per Stomach, study employing Compound III” value in the data set on focal submucosal lesions [3] (three hours post-ethanol, 50 mg/kg, combination 25 + 25 mg/kg, control 2.25 ± 0.98) is 1.50 + 0.76 per Stomach. Besides, the “Focal Lesions per Stomach” value with focal submucosal lesions [3] (three hours post-ethanol, 50 mg/kg, combination 25 + 25 mg/kg, n = 17, control 4.94 ± 1.41) was determined as 2.12 ± 0.87 per Stomach; in the data set on focal submucosal lesions [4] (n = 6, control 4.17 ± 1.58, p<0.05) it was 0.00 per Stomach. For the same compound, the “DRUG EFFECT on mean ulcer score” value in the data set with gastric mucosal ulcers (Day 6, 200 mg/kg oral) was -80%. In addition, in the data set with gastric mucosal ulcers (Day 6, 200 mg/kg oral once daily, * = perforation, 200 mg/kg), the “Established ulcer score, individual animal (area in cm^2, + 2.0 for perforation)” value was 1.2 and 5.75 and 0.72 and 0.8 and 0.5 and 0.3 and 0.56 and 1.4 and 0.90 and 1.44. Besides, the “MEAN SCORE, established ulcers” value in the data set with gastric mucosal ulcers (Day 6, 200 mg/kg oral, controls 3.03 ± 0.73 (sucralfate study, not significant), 4.12 ± 0.67 (Compound III:Al study, P < 0.001)) is 0.82 ± 0.13. Moreover, in the data set with gastric mucosal ulcers (day six, 200 mg/kg oral), the “DRUG EFFECT on mean ulcer area” value is given as -65%. Also, the “Established ulcer area, MEAN” value in the data set with gastric mucosal ulcers (day six, 200 mg/kg oral, controls 2.14 ± 0.43 (sucralfate, P < 0.1), 2.32 ± 0.61 (Compound III:Al, P < 0.05)) was found to be 0.82 ± 0.13 CM^2. Also, in the data set with gastric mucosal ulcers (pooled, 200 mg/kg, control 50, Compound III:Al P < 0.001 vs control and vs sucralfate), the “Perforation As Percent” value was 0%. In addition, the “Perforation Frequency” value in the data set with gastric mucosal ulcers (pooled, 200 mg/kg, days five and six, control 26/52) is 0/49.
Consider Heparin, for which, in the data set on mouse blood coagulation, the “effect on blood coagulation, in words” value is reported as “uncoagulatable after 60 minutes”.
